From the NIST ThermoML archive (doi:10.1016/j.jct.2016.01.012)
Numbers after ± are expanded uncertainties. Each block holds one molecule with its values, some of them ahead of it.

How the values were obtained:
[1] = refractive index (Na D-line) (dimensionless); xn = mol fraction of the nth substance listed; details: 298.15 K, 100 kPa, Liquid, Standard Abbe refractometry
[2] = xn = mol fraction of the nth substance listed; details: 100 kPa, Liquid; for viscosity: Falling or rolling sphere viscometry, x2 = 0; for electrical conductivity: Direct current cell with electrodes
[3] = refractive index (Na D-line) (dimensionless); details: 298.15 K; 100 kPa; Liquid; Standard Abbe refractometry
[4] = 100 kPa, Liquid; for viscosity: Falling or rolling sphere viscometry

refractive index ([1]; x1 = 0.0499): 1.3969 ± 0.0006
refractive index ([1]; x1 = 0.0999): 1.4086 ± 0.0005
refractive index ([1]; x1 = 0.2002): 1.428 ± 0.0005
refractive index ([1]; x1 = 0.2996): 1.4423 ± 0.0005
refractive index ([1]; x1 = 0.4002): 1.4545 ± 0.0005
refractive index ([1]; x1 = 0.4988): 1.4642 ± 0.0005
refractive index ([1]; x1 = 0.6264): 1.4742 ± 0.0006
refractive index ([1]; x1 = 0.8001): 1.4848 ± 0.0006
refractive index ([1]; x1 = 0.9006): 1.4895 ± 0.0006
refractive index ([1]; x1 = 1): 1.4943 ± 0.0006
SMILES: CN(C)C(=[NH2+])N(C)C.c1c[n-]cn1 [1,1,3,3-tetramethylguanidinium imidazol-1-ide] + CCCO

viscosity ([2]; 293.15 K): 0.997 ± 0.041 mPa·s
viscosity ([2]; 298.15 K): 0.886 ± 0.036 mPa·s
viscosity ([2]; 303.15 K): 0.799 ± 0.033 mPa·s
viscosity ([2]; 308.15 K): 0.726 ± 0.03 mPa·s
viscosity ([2]; 313.15 K): 0.665 ± 0.027 mPa·s
refractive index ([1]; x2 = 0): 1.3331 ± 0.0005
SMILES: O [water] + CN(C)C(=[NH2+])N(C)C.c1c[n-]cn1

refractive index [3]: 1.3975 ± 0.0005
SMILES: CCCCO [butan-1-ol]

refractive index [3]: 1.3836 ± 0.0005
SMILES: CCCO [propan-1-ol]

refractive index ([1]; x2 = 0): 1.3267 ± 0.0005
SMILES: CO [methanol] + CN(C)C(=[NH2+])N(C)C.c1c[n-]cn1

electrical conductivity ([2]; 298.15 K, x1 = 0.01): 0.0131 ± 0.001 S/m
electrical conductivity ([2]; 298.15 K, x1 = 0.0299): 0.0337 ± 0.001 S/m
electrical conductivity ([2]; 298.15 K, x1 = 0.0897): 0.092 ± 0.0013 S/m
electrical conductivity ([2]; 298.15 K, x1 = 0.1197): 0.12 ± 0.0014 S/m
electrical conductivity ([2]; 298.15 K, x1 = 0.1499): 0.139 ± 0.0015 S/m
electrical conductivity ([2]; 298.15 K, x1 = 0.1797): 0.16 ± 0.0017 S/m
electrical conductivity ([2]; 298.15 K, x1 = 0.2001): 0.166 ± 0.0017 S/m
electrical conductivity ([2]; 298.15 K, x1 = 0.2195): 0.173 ± 0.0018 S/m
electrical conductivity ([2]; 298.15 K, x1 = 0.2398): 0.179 ± 0.0018 S/m
electrical conductivity ([2]; 298.15 K, x1 = 0.2602): 0.185 ± 0.0019 S/m
electrical conductivity ([2]; 298.15 K, x1 = 0.2996): 0.199 ± 0.002 S/m
electrical conductivity ([2]; 298.15 K, x1 = 0.3995): 0.213 ± 0.002 S/m
electrical conductivity ([2]; 298.15 K, x1 = 0.5): 0.221 ± 0.002 S/m
electrical conductivity ([2]; 298.15 K, x1 = 0.6467): 0.227 ± 0.002 S/m
electrical conductivity ([2]; 298.15 K, x1 = 0.801): 0.229 ± 0.002 S/m
electrical conductivity ([2]; 298.15 K, x1 = 0.8996): 0.223 ± 0.002 S/m
electrical conductivity ([2]; 298.15 K, x1 = 1): 0.218 ± 0.002 S/m
refractive index ([1]; x1 = 0.0483): 1.3799 ± 0.0006
refractive index ([1]; x1 = 0.0999): 1.3983 ± 0.0006
refractive index ([1]; x1 = 0.2003): 1.4242 ± 0.0006
refractive index ([1]; x1 = 0.3001): 1.4405 ± 0.0005
refractive index ([1]; x1 = 0.3999): 1.4547 ± 0.0005
refractive index ([1]; x1 = 0.5): 1.4652 ± 0.0006
refractive index ([1]; x1 = 0.643): 1.4762 ± 0.0006
refractive index ([1]; x1 = 0.7966): 1.4854 ± 0.0006
refractive index ([1]; x1 = 0.8987): 1.4903 ± 0.0006
refractive index ([1]; x1 = 1): 1.4943 ± 0.0006
SMILES: CN(C)C(=[NH2+])N(C)C.c1c[n-]cn1 [1,1,3,3-tetramethylguanidinium imidazol-1-ide] + CCO

refractive index ([1]; x2 = 0): 1.3975 ± 0.0005
SMILES: CCCCO [butan-1-ol] + CN(C)C(=[NH2+])N(C)C.c1c[n-]cn1

viscosity ([4]; 293.15 K): 0.997 ± 0.041 mPa·s
viscosity ([4]; 298.15 K): 0.886 ± 0.036 mPa·s
viscosity ([4]; 303.15 K): 0.799 ± 0.033 mPa·s
viscosity ([4]; 308.15 K): 0.726 ± 0.03 mPa·s
viscosity ([4]; 313.15 K): 0.665 ± 0.027 mPa·s
refractive index [3]: 1.3331 ± 0.0005
SMILES: O [water]

refractive index [3]: 1.3598 ± 0.0005
SMILES: CCO [ethanol]

refractive index ([1]; x1 = 0.0499): 1.4074 ± 0.0005
refractive index ([1]; x1 = 0.1004): 1.4159 ± 0.0005
refractive index ([1]; x1 = 0.1999): 1.4316 ± 0.0005
refractive index ([1]; x1 = 0.2997): 1.4443 ± 0.0005
refractive index ([1]; x1 = 0.3985): 1.4545 ± 0.0005
refractive index ([1]; x1 = 0.4997): 1.4641 ± 0.0005
refractive index ([1]; x1 = 0.6499): 1.4748 ± 0.0006
refractive index ([1]; x1 = 0.8002): 1.4839 ± 0.0006
refractive index ([1]; x1 = 0.9004): 1.4888 ± 0.0006
refractive index ([1]; x1 = 1): 1.4943 ± 0.0006
SMILES: CN(C)C(=[NH2+])N(C)C.c1c[n-]cn1 [1,1,3,3-tetramethylguanidinium imidazol-1-ide] + CCCCO

refractive index ([1]; x1 = 0.0501): 1.3631 ± 0.0008
refractive index ([1]; x1 = 0.1005): 1.389 ± 0.0006
refractive index ([1]; x1 = 0.1957): 1.4222 ± 0.0006
refractive index ([1]; x1 = 0.2953): 1.4423 ± 0.0005
refractive index ([1]; x1 = 0.393): 1.4577 ± 0.0005
refractive index ([1]; x1 = 0.5005): 1.4688 ± 0.0005
refractive index ([1]; x1 = 0.6431): 1.4791 ± 0.0006
refractive index ([1]; x1 = 0.7815): 1.4865 ± 0.0006
refractive index ([1]; x1 = 0.8994): 1.4915 ± 0.0006
refractive index ([1]; x1 = 1): 1.4943 ± 0.0006
SMILES: CN(C)C(=[NH2+])N(C)C.c1c[n-]cn1 [1,1,3,3-tetramethylguanidinium imidazol-1-ide] + CO

refractive index ([1]; x2 = 0): 1.3598 ± 0.0005
SMILES: CCO [ethanol] + CN(C)C(=[NH2+])N(C)C.c1c[n-]cn1

electrical conductivity ([4]; 298.15 K, Direct current cell with electrodes): 0.218 ± 0.002 S/m
refractive index [3]: 1.4943 ± 0.0006
SMILES: CN(C)C(=[NH2+])N(C)C.c1c[n-]cn1 [1,1,3,3-tetramethylguanidinium imidazol-1-ide]

refractive index [3]: 1.3267 ± 0.0005
SMILES: CO [methanol]

refractive index ([1]; x2 = 0): 1.3836 ± 0.0005
SMILES: CCCO [propan-1-ol] + CN(C)C(=[NH2+])N(C)C.c1c[n-]cn1
